Test results as given in patent publication US10189809B2, “SGC stimulators” (Ironwood Pharmaceuticals, Inc., priority 2010, dated 2019).
Where two headings read alike, the source gives them in different places.

Tests used:
[1] = molecular target: T1, soluble guanylate cyclase (sGC) (Homo sapiens (Human), UniProt Q02108+Q02153); assay: sGC-HEK-cGMP assay run in the absence of SNP (HEK WC assay); type: cell-based; settings: compound at 30 μM, absence of SNP
How it was run: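 Intracellular cGMP was measured by LC/MS, using a standard curve, in HEK293 cells treated with compound for 10 min at 37° C after a 15 min 0.5 mM IBMX pretreatment, with no SNP present. Lysis and quench used 0.1 M HCl. EC50 values came from concentration-response fits.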

[2] = molecular target: T1, soluble guanylate cyclase (sGC); assay: sGC-HEK-cGMP assay run with SNP incubation (HEK WC assay); type: cell-based; settings: for HEK WC Assay (fold increase at 30 μM in the presence of 10 μM SNP): compound at 30 μM; for EC50: in the presence of 10 uM SNP
How it was run: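 EC50 values derive from concentration-response curves of intracellular cGMP in HEK293 cells, which express sGC endogenously. Compound and sodium nitroprusside were co-incubated 10 min at 37 °C after a 15-min 0.5 mM IBMX step, with 0.1 M HCl lysis and 1% DMSO vehicle.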

Thoracic aortic rings = assay: Alternative thoracic aortic rings assay (Example 19b; resting tension as 100% inhibition); design: species or system rat; settings: Rattus norvegicus, Table 10B; for inhibition at 1 µM: read-out: Percent Relaxation at 1 μM; for inhibition at 3 µM: read-out: Percent Relaxation at 3 μM; for EC50: read-out: Aortic Ring EC50; for inhibition at 10 µM: read-out: Percent Relaxation at 10 μM
Method: Thoracic aortic rings were dissected from anesthetized (isoflurane) male Sprague-Dawley rats weighing 275-299 g. Tissues were immediately transferred to ice-cold Krebs-Henseleit solution, which had been aerated with 95% O2 and 5% CO2 for 30 minutes. Following removal of connective tissue, aortic sections were cut into 4 rings (˜2 mm each) and suspended on 2 L-shaped hooks, with one hook fixed at the bottom of the tissue bath (Schuler Organ Bath, Harvard Apparatus) and the other connected to a force transducer (F30 Force Transducer, Harvard Apparatus). Baths contained Krebs Henseleit solution (10 mL) heated to 37° C. and aerated with 95% O2 and 5% CO2. Rings were brought to an initial tension of 0.3-0.5 g and gradually raised to a resting tension of 1.0 g over 60 minutes. Rings were rinsed with Krebs Henseleit solution (heated to 37° C. and aerated with 95% O2 and 5% CO2) at 15 minute intervals until a stable baseline was obtained. Rings were considered to be stable after a resting tension of 1.0 g was maintained (for approximately 10 minutes) without need for adjustment. Rings were then contracted with 100 ng/mL phenylephrine by adding 100 uL of a 10 μg/mL phenylephrine stock solution. Tissues achieving a stable contraction were then treated in a cumulative, dose dependent manner with test compounds prepared in dimethylsulfoxide (DMSO). In some cases, tissues were rinsed three times over a 5 minute period with Krebs-Heinseleit's solution (heated to 37° C. and aerated with 95% O2 and 5% CO2), allowed to stabilize at baseline, and then used for characterization of other test articles or DMSO effects. All data were collected using the HSE-ACAD software provided by Harvard Apparatus. […] EC50 values were calculated from concentration-response curves generated with GraphPad Prism Software.

[3] = read-out: HEK WC Assay (% Emax at 10 μM with 10 uM SNP)
[4] = read-out: HEK WC Assay (% Emax at 30 μM with 10 uM SNP)
[5] = read-out: HEK WC Assay (% Emax at 1 μM with 10 uM SNP)

T1 sequence (Q02153 whole entry): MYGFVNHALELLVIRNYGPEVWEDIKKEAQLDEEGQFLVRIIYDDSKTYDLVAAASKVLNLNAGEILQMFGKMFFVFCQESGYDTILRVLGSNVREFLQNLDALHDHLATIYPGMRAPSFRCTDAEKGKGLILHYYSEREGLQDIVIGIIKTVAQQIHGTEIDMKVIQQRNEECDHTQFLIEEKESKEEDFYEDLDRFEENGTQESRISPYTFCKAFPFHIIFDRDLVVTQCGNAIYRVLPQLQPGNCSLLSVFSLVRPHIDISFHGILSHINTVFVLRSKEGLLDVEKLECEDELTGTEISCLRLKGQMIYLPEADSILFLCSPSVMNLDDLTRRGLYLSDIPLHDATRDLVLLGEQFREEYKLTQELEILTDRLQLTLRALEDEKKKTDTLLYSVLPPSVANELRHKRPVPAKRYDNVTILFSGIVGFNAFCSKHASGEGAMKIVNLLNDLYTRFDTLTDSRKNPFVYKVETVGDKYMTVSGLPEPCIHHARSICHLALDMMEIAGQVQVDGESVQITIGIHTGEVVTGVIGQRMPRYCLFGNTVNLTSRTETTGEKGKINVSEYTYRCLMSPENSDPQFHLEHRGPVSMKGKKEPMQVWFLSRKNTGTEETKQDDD
T1 sequence (Q02108 whole entry): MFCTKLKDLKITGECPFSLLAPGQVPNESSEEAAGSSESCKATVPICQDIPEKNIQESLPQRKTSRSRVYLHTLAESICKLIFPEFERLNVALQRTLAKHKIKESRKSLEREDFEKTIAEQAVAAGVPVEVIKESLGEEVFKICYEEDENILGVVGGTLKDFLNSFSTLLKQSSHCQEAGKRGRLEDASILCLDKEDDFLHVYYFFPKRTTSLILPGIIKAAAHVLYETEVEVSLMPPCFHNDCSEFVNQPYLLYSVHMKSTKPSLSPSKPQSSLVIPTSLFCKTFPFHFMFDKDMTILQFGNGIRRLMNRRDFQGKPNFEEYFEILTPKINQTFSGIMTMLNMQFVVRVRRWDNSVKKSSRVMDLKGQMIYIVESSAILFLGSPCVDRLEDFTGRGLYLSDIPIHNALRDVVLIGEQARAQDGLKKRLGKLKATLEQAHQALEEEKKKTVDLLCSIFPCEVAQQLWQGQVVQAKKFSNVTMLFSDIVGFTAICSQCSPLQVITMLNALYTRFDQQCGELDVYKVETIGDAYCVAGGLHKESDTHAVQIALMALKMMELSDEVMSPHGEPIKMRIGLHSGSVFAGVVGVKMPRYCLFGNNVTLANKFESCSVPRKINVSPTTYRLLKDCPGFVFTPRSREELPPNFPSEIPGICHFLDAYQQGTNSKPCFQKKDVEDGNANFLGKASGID

| Compound | HEK WC Assay (fold increase at 30 μM in the absence of SNP) [1] | HEK WC Assay (fold increase at 30 μM in the presence of 10 μM SNP) [2] | EC50 [2] | Emax [2, 3] | Emax [2, 4] | inhibition at 1 µM (Thoracic aortic rings) | inhibition at 3 µM (Thoracic aortic rings) | EC50 (Thoracic aortic rings) | inhibition at 10 µM (Thoracic aortic rings) | Emax [2, 5] |
| --- | --- | --- | --- | --- | --- | --- | --- | --- | --- | --- |
| COC(=O)Nc1cnc(-c2cc(-c3ccon3)n(Cc3ccccc3F)n2)nc1N [Compound I-142] | E (E = 10 to <20 fold increase) | F (F = 20 to <30 fold increase) | < 20 µM | 100 to 120% | 100 to 120% | 80 to 100% | 100 to 120% | < 2 µM |  |  |
| Nc1nc(-c2cc(-c3ncco3)n(Cc3ccccc3F)n2)ncc1F [Compound I-147] | D (D = 5 to <10 fold increase) | E (E = 10 to <20 fold increase) | < 20 µM | 80 to 100% | 60 to 80% | 60 to 80% | 80 to 100% | < 2 µM | 80 to 100% |  |
| CC(C)(C)OC(=O)Nc1cnc(-c2cc(-c3ncco3)n(Cc3ccccc3F)n2)nc1N [Compound I-148] | D (D = 5 to <10 fold increase) | E (E = 10 to <20 fold increase) | < 20 µM | 100 to 120% | 100 to 120% | 80 to 100% | 80 to 100% | < 2 µM |  |  |
| CC(C)COC(=O)Nc1cnc(-c2cc(-c3ccon3)n(Cc3ccccc3F)n2)nc1N [Compound I-150] | E (E = 10 to <20 fold increase) | E (E = 10 to <20 fold increase) | < 20 µM | 80 to 100% | 80 to 100% | 40 to 60% | 80 to 100% | < 2 µM | 80 to 100% |  |
| CC(=O)Nc1cnc(-c2cc(-c3ncco3)n(Cc3ccccc3F)n2)nc1N [Compound I-151] | C (C = 2 to <5 fold increase) | D (D = 5 to <10 fold increase) | < 20 µM | 60 to 80% | 60 to 80% | 80 to 100% | 100 to 120% | < 2 µM | 100 to 120% |  |
| Nc1nc(-c2cc(-c3ccon3)n(Cc3ccccc3F)n2)ncc1NC(=O)OCCCl [Compound I-152] | E (E = 10 to <20 fold increase) | E (E = 10 to <20 fold increase) | < 20 µM | 60 to 80% | 40 to 60% | 60 to 80% | 80 to 100% | < 2 µM | 100 to 120% |  |
| Nc1nc(-c2cc(-c3ccon3)n(Cc3ccccc3F)n2)ncc1N1CCOC1=O [Compound I-153] | C (C = 2 to <5 fold increase) | D (D = 5 to <10 fold increase) | < 20 µM | 40 to 60% | 60 to 80% | 60 to 80% | 60 to 80% | < 2 µM | 80 to 100% |  |
| O=C(Nc1cnc(-c2cc(-c3ccon3)n(Cc3ccccc3F)n2)nc1O)c1ccccc1 [Compound I-158] | C (C = 2 to <5 fold increase) |  | 100 to 300 µM | 20 to 40% | 20 to 40% | 10 to 20% | 40 to 60% | 4 to 8 µM | 80 to 100% | 0 to 10% |
| Nc1nc(-c2cc(-c3ccon3)n(Cc3ccccc3F)n2)ncc1NC(=O)c1ccccn1 [Compound I-162] | E (E = 10 to <20 fold increase) | G (G = 30 to <40 fold increase) | < 20 µM | 80 to 100% | 60 to 80% | 100 to 120% | > 120% | < 2 µM |  |  |
| CC(C)C(=O)Nc1cnc(-c2cc(-c3ccon3)n(Cc3ccccc3F)n2)nc1N [Compound I-165] | D (D = 5 to <10 fold increase) | F (F = 20 to <30 fold increase) | < 20 µM | 80 to 100% | 100 to 120% | 60 to 80% | 80 to 100% | < 2 µM | 100 to 120% | 40 to 60% |
| COc1ccccc1C(=O)Nc1cnc(-c2cc(-c3ccon3)n(Cc3ccccc3F)n2)nc1N [Compound I-166] | D (D = 5 to <10 fold increase) | G (G = 30 to <40 fold increase) | < 20 µM | 80 to 100% | 100 to 120% | 40 to 60% | 80 to 100% | < 2 µM | 100 to 120% | 60 to 80% |
| Nc1nc(-c2cc(-c3ccon3)n(Cc3ccccc3F)n2)ncc1NC(=O)c1ccc(F)cc1 [Compound I-168] | E (E = 10 to <20 fold increase) | G (G = 30 to <40 fold increase) | < 20 µM | 100 to 120% | 100 to 120% | 60 to 80% | 100 to 120% | < 2 µM | 100 to 120% | 100 to 120% |
| Nc1nc(-c2cc(-c3ccon3)n(Cc3ccccc3F)n2)ncc1N1CCCC1=O [Compound I-169] | C (C = 2 to <5 fold increase) | D (D = 5 to <10 fold increase) | < 20 µM | 40 to 60% | 60 to 80% | 40 to 60% | 80 to 100% | < 2 µM |  | 20 to 40% |
| Nc1nc(-c2cc(-c3ccon3)n(Cc3ccccc3F)n2)ncc1NC(=O)c1ccccc1F [Compound I-172] | E (E = 10 to <20 fold increase) | E (E = 10 to <20 fold increase) | < 20 µM | 60 to 80% | 80 to 100% | 80 to 100% | 100 to 120% | < 2 µM | 100 to 120% | 80 to 100% |
| COc1cccc(C(=O)Nc2cnc(-c3cc(-c4ccon4)n(Cc4ccccc4F)n3)nc2N)c1 [Compound I-174] | E (E = 10 to <20 fold increase) | F (F = 20 to <30 fold increase) | < 20 µM | 80 to 100% | 100 to 120% | 80 to 100% | 80 to 100% | < 2 µM |  | 60 to 80% |
| Nc1nc(-c2cc(-c3ccon3)n(Cc3ccccc3F)n2)ncc1NC(=O)c1ccncc1 [Compound I-176] | E (E = 10 to <20 fold increase) | E (E = 10 to <20 fold increase) | < 20 µM | 60 to 80% | 60 to 80% | 80 to 100% | 100 to 120% | < 2 µM |  | 20 to 40% |
| COCC(=O)Nc1cnc(-c2cc(-c3ccon3)n(Cc3ccccc3F)n2)nc1N [Compound I-177] | D (D = 5 to <10 fold increase) | E (E = 10 to <20 fold increase) | < 20 µM | 80 to 100% | 80 to 100% | 80 to 100% | 80 to 100% | < 2 µM |  | 40 to 60% |
| Nc1nc(-c2cc(-c3ccon3)n(Cc3ccccc3F)n2)ncc1Nc1nccs1 [Compound I-178] | E (E = 10 to <20 fold increase) | E (E = 10 to <20 fold increase) | < 20 µM | 80 to 100% | 60 to 80% | 60 to 80% | 100 to 120% | < 2 µM | 100 to 120% | 40 to 60% |
